Measured values published in paper PMC10447463, “Data-mining unveils structure–property–activity correlation of viral infectivity enhancing self-assembling peptides” (Nature Communications, 2023).
Where two headings read alike, the source gives them in different places.

Assays:
[1] = type: physicochemical; settings: for Tht category (> 1.5 to blank = +): category 1/0
How it was run: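 Preformed peptide fibrils (1 mg/mL) mixed with 50 µM ThT in PBS, 15 min at RT, fluorescence ex 440/em 488 nm versus PBS blank, triplicates. Zeta potential: peptides at 1 mg/mL in PBS pH 7.4, aged 1 d at RT, diluted in 1 mM KCl, Smoluchowski from electrophoretic mobility.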

[2] = type: physicochemical; settings: STD prep
[3] = test system: HIV-1 infection of TZM-bl cells; assay: HIV-1 infectivity enhancement assay, β-galactosidase luminescence; type: cell-based; settings: for Log10 Inf. rel. to EF-C: log10 of HIV-1 infection of TZM-bl cells relative to EF-C, Fig S15 source data, asymmetric std dev errors; for Rel-to EFC / n-fold to virus: Fig S8 panels B, D; for Rel-to EFC: infectivity enhancement relative to EF-C
[4] = relative to blank 42.1851851851852 a.u.
[5] = Feb2021, 1.3 µM value relative to virus only (0 µM)
[6] = Feb2021, log10 of infectivity relative to EF-C
[7] = Feb2021, n-fold infectivity relative to EF-C
[8] = Feb2021, unrounded values of the 1.3 µM column
[9] = infectivity class (low / medium / high) of each library peptide, main list in c1-c6, same classes repeated in sub-lists of sequences containing the hydrophobicity/charge patterns P+,H0,P+,H0,P0,H0,P0, P+,H0,P0,H0,P0,H0,P0, P+,H0,P0,H0
[10] = ThT fluorescence relative to blank (42.1851851851852 a.u.)
[11] = Feb2021, Log10 of infectivity relative to EF-C
[12] = Feb2021, n-fold enhancement relative to EF-C
[13] = Feb2021 run, infectivity n-fold relative to virus alone
[14] = Feb2021 run, log10 of infectivity relative to EF-C
[15] = Feb2021 run, n-fold infectivity relative to EF-C
[16] = infectivity n-fold relative to virus alone
[17] = infectivity class (low / medium / high) of the peptide in the sequence-pattern analysis, Fig. S22-A4, class limits not given

Substance	Tht category (> 1.5 to blank = +) [1]	Tht rel to blank (42.1851851851852) [1, 4]	TEM: 1= fibrils, 0= aggregates (micelle), 0.5 = aggregates and fibrils, -1 = nothing obersved, STD prep [2]	n-fold to virus (Feb2021) [3, 5]	Log10 of Rel to EFC (Feb2021) [3, 6]	Rel-to EFC (Feb-2021) [3, 7]	Absolute Infectivity / RLU /s (Feb2021) [3, 8]	infectivity [3, 9]	Log10 Inf. rel. to EF-C [3]	Tht rel to blank (42.1851851851852) [1, 10]	Log10 of Rel to EFC (Feb2021) [3, 11]	Rel-to EFC (Feb-2021) [3, 12]	n-fold to virus (Feb2021) [3, 13]	Log10 of Rel to EFC (Feb2021) [3, 14]	Rel-to EFC (Feb-2021) [3, 15]	infectivity [3, 17]	further results
CSISIQINM [TM145]	1 (ThT. Cat is 1, if Rel. ThT >2)	5.919	0.5	8.332	-0.7027	0.1983	10943.33333 RLU /s	medium	-0.7027	–	–	–	–	–	–	–	–
CKAKAQANMWQ [BL8]	0 (ThT-inactive (N-Fold <2))	1.86	0.5	1.837	–	0.04371	600 RLU /s	low	-1.359	1.86	-1.359	0.04371	1.837	-1.359	0.04371	–	Rel-to EFC [3]: 0.04371; n-fold to virus [3, 16]: 1.837
MKIKIQINMWQ [TM52]	1 (ThT. Cat is 1, if Rel. ThT >2)	4.061	1	17.6	–	0.4188	12786.66667 RLU /s	medium	-0.378	4.061	-0.378	0.4188	17.6	-0.378	0.4188	–	–
CKAKAQANM [BL9]	0 (ThT-inactive (N-Fold <2))	1.249	0.5	1.316	–	0.03133	430 RLU /s	low	-1.504	1.249	-1.504	0.03133	1.316	-1.504	0.03133	–	–
CKYKYQY [KB2]	1 (ThT. Cat is 1, if Rel. ThT >2)	3.119	0	1.711	-1.39	0.04071	1083 RLU /s	low	-1.3903	–	–	–	–	–	–	–	–
KIKIQINMW [JGB1 /TM85]	1 (ThT. Cat is 1, if Rel. ThT >2)	4.61	1	–	–	–	–	high	0.3339	4.61	0.3339	2.157	90.64	0.3339	2.157	high	–
MKIKIQINM [TM41]	0 (ThT-inactive (N-Fold <2))	1.327	1	11.48	-0.5635	0.2732	15000 RLU /s	medium	-0.5635	–	–	–	–	–	–	–	–
KAKAQANM [TM152]	0 (ThT-inactive (N-Fold <2))	1.082	0.5	0.3782	–	0.009	496.7 RLU /s	low	-2.046	1.082	-2.046	0.009	0.3782	-2.046	0.009	low	–
CKAKAQA [TM155]	0 (ThT-inactive (N-Fold <2))	1.227	0.5	1.325	–	0.03153	1740 RLU /s	low	-1.501	1.227	-1.501	0.03153	1.325	-1.501	0.03153	low	–
KWKWQW [KB3]	0 (ThT-inactive (N-Fold <2))	1.518	0	0.6105	-1.838	0.01453	386.7 RLU /s	low	-1.838	–	–	–	–	–	–	–	Rel-to EFC [3]: 0.01453; n-fold to virus [3, 16]: 0.6105
CKIKIQINMW [TM86]	0 (ThT-inactive (N-Fold <2))	1.353	1	54.4	–	1.295	7253 RLU /s	high	0.1122	1.353	0.1122	1.295	54.4	0.1122	1.295	high	–
KIKIKIQI [TG13]	1 (ThT. Cat is 1, if Rel. ThT >2)	–	1	–	–	0.09675	–	low	-1.014	2.036	-1.014	0.09675	–	–	–	low	Tht rel to blank (42.1851851851852) ([1]; ThT fluorescence relative to blank, blank = 42.1851851851852): 2.036; Absolute Infectivity / RLU /s (Feb2021) ([3]; Feb2021, figures match the 1.3 µM column): 2073 RLU /s; n-fold to virus (Feb2021) ([3]; Feb2021, infectivity relative to virus only): 4.065
